# Assay results from patent US20240148821A1, “PHARMACEUTICAL USE OF CYCLIC PEPTIDE COMPOUND” (CHUGAI SEIYAKU KABUSHIKI KAISHA, priority 2021, published 2024).
# Bridge positions count the residues as written; N and C are the ends. Square brackets hold non-standard residues; d marks the D form. Peptide text beside a SMILES is read from it. * marks the point of attachment. hPhe(3-Cl-4-CF3) = N[C@@H](CCc1ccc(C(F)(F)F)c(Cl)c1)C(=O)O; NMePhe(3-CN) = CN[C@@H](Cc1cccc(C#N)c1)C(=O)O; NMePhe(4-Me) = CN[C@@H](Cc1ccc(C)cc1)C(=O)O; Phe(2-Cl) = N[C@@H](Cc1ccccc1Cl)C(=O)O; Phe(3-I) = N[C@@H](Cc1cccc(I)c1)C(=O)O; Phe(4-F) = N[C@@H](Cc1ccc(F)cc1)C(=O)O; NMeAla(cPr) = CN[C@@H](CC1CC1)C(=O)O; NMeCha = CN[C@@H](CC1CCCCC1)C(=O)O; NMeChg = CN[C@H](C(=O)O)C1CCCCC1; NMeI = CC[C@H](C)[C@H](NC)C(=O)O; NMeD = CN[C@@H](CC(=O)O)C(=O)O; NMeL = CN[C@@H](CC(C)C)C(=O)O; αMeL = CC(C)C[C@](C)(N)C(=O)O; NMeV = CN[C@H](C(=O)O)C(C)C; d(β3hA) = C[C@@H](N)CC(=O)O; NMeA = CN[C@@H](C)C(=O)O; NMeAib = CNC(C)(C)C(=O)O; Piperidide = C1CCN(*)CC1; Pra = C#CC[C@H](N)C(=O)O; Ac5c = NC1(C(=O)O)CCCC1; Aze = O=C(O)[C@@H]1CCN1; Sar = CNCC(=O)O
# Test system: Human pancreatic cancer cell line AsPC-1 (G12D mutation Kras)
# Test: AsPC-1 cell growth inhibition (AsPC-1 CGI)
# Type: cell-based
# Details: read-out: AsPC-1 cell growth inhibition, 50% growth inhibitory concentration (IC50 value); 96 hours, CellTiter-Glo, values classified in ranges
# Procedure: Test compounds were serially dilated with dimethyl sulfoxide, and 200 nL was then dispensed to a U-bottom 96-well plate using Labcyte Echo. […] The cell suspension was dispensed to a. plate containing a test compound at 100 μL per well and incubated at 37° C. in a 5% carbon dioxide gas incubator. 96 hours later, 80 μL of CellTiter-Glo (Promega) was added to each well and fluorescence was measured.
row,SMILES,IC50 [nM]
1,CC[C@H](C)[C@@H]1NC(=O)[C@H](C)N(C)C(=O)C[C@@H](C)NC(=O)[C@H](C(C)C)N(C)C(=O)C2(CCCC2)NC(=O)[C@@H]2CCCN2C(=O)[C@H](CCc2ccc(C(F)(F)F)c(Cl)c2)NC(=O)CN(C)C(=O)[C@H](CC2CCCCC2)N(C)C(=O)CN(C)C(=O)CN(C)C1=O [Compound 697] (cyclo([Ac5c][NMeV][d(β3hA)][NMeA]I[Sar][Sar][NMeCha][Sar][hPhe(3-Cl-4-CF3)]P)),> 500
2,CC[C@H](C)[C@@H]1NC(=O)[C@H](CC(C)C)N(C)C(=O)C[C@@H](C(=O)N2CCCCC2)N(C)C(=O)[C@H](CC(C)C)NC(=O)C(C)(C)N(C)C(=O)[C@H](Cc2ccc(OC)cc2)NC(=O)[C@H](Cc2cccc(I)c2)NC(=O)CN(C)C(=O)[C@H](Cc2ccc(C)cc2)N(C)C(=O)[C@@H]2CCN2C(=O)[C@H](C)N(C)C1=O [Compound 703] ([NMeL]I[NMeA][Aze][NMePhe(4-Me)][Sar][Phe(3-I)]Y(Me)[NMeAib]L[NMeD]-Piperidide; lactam N-11),> 500
3,CC[C@H](C)[C@@H]1NC(=O)[C@H](CC(C)C)N(C)C(=O)C[C@@H](C)NC(=O)[C@H](C(C)C)N(C)C(=O)[C@](C)(CC(C)C)NC(=O)[C@@H]2CCCN2C(=O)[C@H](CCc2ccc(C(F)(F)F)c(Cl)c2)NC(=O)CN(C)C(=O)[C@H](CC2CCCCC2)N(C)C(=O)CN(C)C(=O)CN(C)C1=O [Compound 705] (cyclo(I[Sar][Sar][NMeCha][Sar][hPhe(3-Cl-4-CF3)]P[αMeL][NMeV][d(β3hA)][NMeL])),> 500
4,CC[C@H](C)[C@@H]1NC(=O)[C@H](CC(C)C)N(C)C(=O)C[C@@H](C(=O)N2CCCCC2)N(C)C(=O)[C@H](CC(C)C)NC(=O)C(C)(C)N(C)C(=O)[C@H](Cc2ccccc2Cl)NC(=O)[C@H](Cc2cccc(I)c2)NC(=O)CN(C)C(=O)[C@H](Cc2ccc(C)cc2)N(C)C(=O)CN(C)C(=O)CN(C)C1=O [Compound 706] ([NMeL]I[Sar][Sar][NMePhe(4-Me)][Sar][Phe(3-I)][Phe(2-Cl)][NMeAib]L[NMeD]-Piperidide; lactam N-11),> 500
5,CC[C@H](C)[C@@H]1NC(=O)[C@H](CC(C)C)N(C)C(=O)C[C@@H](C)NC(=O)[C@H](CC2CC2)N(C)C(=O)C2(CCCC2)NC(=O)[C@@H]2CCCN2C(=O)[C@H](CCc2ccc(C(F)(F)F)c(Cl)c2)NC(=O)CN(C)C(=O)[C@H](CC2CCCCC2)N(C)C(=O)CN(C)C(=O)CN(C)C1=O [Compound 707] (cyclo([Ac5c][NMeAla(cPr)][d(β3hA)][NMeL]I[Sar][Sar][NMeCha][Sar][hPhe(3-Cl-4-CF3)]P)),> 500
6,CC[C@H](C)[C@@H]1NC(=O)[C@H](CC(C)C)N(C)C(=O)C[C@@H](C(=O)N2CCCCC2)N(C)C(=O)[C@H](C(C)C)N(C)C(=O)C2(CCCC2)NC(=O)[C@@H]2CCCN2C(=O)[C@H](CCc2ccc(C(F)(F)F)c(Cl)c2)NC(=O)CN(C)C(=O)[C@H](Cc2cccc(C#N)c2)N(C)C(=O)CN(C)C(=O)CN(C)C1=O [Compound 710] ([NMeL]I[Sar][Sar][NMePhe(3-CN)][Sar][hPhe(3-Cl-4-CF3)]P[Ac5c][NMeV][NMeD]-Piperidide; lactam N-11),> 500
7,CC[C@H](C)[C@@H]1NC(=O)[C@H](CC(C)C)N(C)C(=O)C[C@@H](C(=O)N2CCCCC2)N(C)C(=O)[C@H](CC(C)C)NC(=O)C(C)(C)N(C)C(=O)[C@H](Cc2ccc(F)cc2)NC(=O)[C@H](Cc2cccc(I)c2)NC(=O)CN(C)C(=O)[C@H](CC2CCCCC2)N(C)C(=O)CN(C)C(=O)CN(C)C1=O [Compound 711] ([NMeL]I[Sar][Sar][NMeCha][Sar][Phe(3-I)][Phe(4-F)][NMeAib]L[NMeD]-Piperidide; lactam N-11),> 500
8,CC[C@H](C)[C@@H]1NC(=O)[C@H](CC(C)C)N(C)C(=O)C[C@@H](C(=O)N(C)C)N(C)C(=O)[C@H]([C@@H](C)CC)N(C)C(=O)[C@H](C)NC(=O)[C@H](C)N(C)C(=O)[C@H](CCc2ccc(C(F)(F)F)c(Cl)c2)NC(=O)CN(C)C(=O)[C@H](Cc2ccc(C)cc2)N(C)C(=O)[C@@H]2CCN2C(=O)[C@H](C)N(C)C1=O [Compound 715] ([NMeL]I[NMeA][Aze][NMePhe(4-Me)][Sar][hPhe(3-Cl-4-CF3)][NMeA]A[NMeI][NMeD]-NMe2; lactam N-11),> 500
9,C#CC[C@@H]1NC(=O)[C@H](CC(C)C)N(C)C(=O)C[C@@H](C(=O)N2CCCCC2)N(C)C(=O)[C@H](C2CCCCC2)N(C)C(=O)C2(CCCC2)NC(=O)[C@@H]2CCCN2C(=O)[C@H](CCc2ccc(C(F)(F)F)c(Cl)c2)NC(=O)CN(C)C(=O)[C@H](CC2CCCCC2)N(C)C(=O)CN(C)C(=O)CN(C)C1=O [Compound 716] ([NMeL][Pra][Sar][Sar][NMeCha][Sar][hPhe(3-Cl-4-CF3)]P[Ac5c][NMeChg][NMeD]-Piperidide; lactam N-11),> 500
